Measurements reported in patent publication US5496844A, “Indole derivatives” (Otsuka Pharmaceutical Factory, Inc., priority 1992, dated 1996).

Target: T1, rat uterus cytoplasm estrogen receptor (Rattus norvegicus, UniProt P06211)
T1 construct: the homogenate was centrifuged to give a cytoplasm fraction; from tissue; host or cells: uterus of female SD rats aged 3 to 4 weeks, cytoplasm fraction
T1 sequence (P06211 1-600): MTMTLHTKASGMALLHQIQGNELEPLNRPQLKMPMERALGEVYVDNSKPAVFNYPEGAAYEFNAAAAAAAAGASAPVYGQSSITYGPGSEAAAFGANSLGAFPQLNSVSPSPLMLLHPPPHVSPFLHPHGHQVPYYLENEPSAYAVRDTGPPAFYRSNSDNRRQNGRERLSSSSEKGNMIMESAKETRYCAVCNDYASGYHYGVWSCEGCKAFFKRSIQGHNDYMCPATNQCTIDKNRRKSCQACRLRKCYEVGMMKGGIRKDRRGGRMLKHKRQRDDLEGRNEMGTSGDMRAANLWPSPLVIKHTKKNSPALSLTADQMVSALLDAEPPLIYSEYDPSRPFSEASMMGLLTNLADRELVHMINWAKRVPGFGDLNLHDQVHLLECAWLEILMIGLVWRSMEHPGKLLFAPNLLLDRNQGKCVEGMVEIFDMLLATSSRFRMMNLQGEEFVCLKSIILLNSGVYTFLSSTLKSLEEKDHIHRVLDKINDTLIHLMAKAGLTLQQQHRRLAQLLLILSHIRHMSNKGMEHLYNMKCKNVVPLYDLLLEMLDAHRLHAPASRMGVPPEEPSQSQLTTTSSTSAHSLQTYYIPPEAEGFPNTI
Assay: inhibition of specific binding of [3H]-moxestrol to rat uterus cytoplasm estrogen receptor
Design: species or system rat (female SD)
Settings: relative to moxestrol as control compound; rat uterus cytoplasm fraction; 4° C., 16 hours; DCC method
Experimental: Test for inhibitory activity against the specific binding of [^3 H]-moxestrol to the rat uterus cytoplasm estrogen receptor
The above activity was measured essentially as described in the literature [J. Biol. Chem., 258 (5), 3173 (1973) and Biochem. Pharmacol., 43 (12), 2511 (1992)].
Thus, the uterus was excised from female SD rats aged 3 to 4 weeks and homogenized in 6 volumes of TETG buffer (10 mM Tris-hydrochloride, 1 mM EDTA, 12 mM thioglycerol and 10% glycerol) and the homogenate was centrifuged to give a cytoplasm fraction. ^3 H-Moxestrol and each test compound were added to this cytoplasm fraction and each mixture was incubated at 4° C. for 16 hours to allow binding to the estrogen receptor in the cytoplasm fraction.
Then, the free form of ^3 H-moxestrol was removed by the DCC method and the bound form of ^3 H-moxestrol was quantitated using a liquid scintillation counter.
Moxestrol was used as a control compound and the relative binding affinity (RBA), which was defined as the ^3 H-moxestrol binding inhibiting effect (IC50) ratio, was determined as follows: [formula]
The thus-obtained RBA values for the respective test compounds are shown below in Table 21.

First: O=C(c1ccc(OCCCN2CCCCC2)cc1)n1c(-c2ccc(Sc3ccccc3)cc2)cc2cc(O)ccc21 [Example 239]
Second: O=C(c1ccc(OCCCN2CCCC2)cc1)n1c(-c2ccc(Sc3ccccc3)cc2)cc2cc(O)ccc21 [Example 238]
The “RBA (relative binding affinity, 3H-moxestrol binding inhibiting effect (IC50) ratio)” value of the first is higher: 73% for the first, 49% for the second.

Compared with `CSc1ccc(-c2c(C)c3cc(O)ccc3n2CCCCCCCCN2CCCCC2)cc1` [Example 285], `CSc1ccc(-c2c(C)c3cc(O)ccc3n2CCCCCCCCN2CCCC2)cc1` [Example 281, 5-hydroxy-3-methyl-2-(4-methylthiophenyl)-1-[8-(1-pyrrolidinyl)octyl]indole] is higher in “RBA (relative binding affinity, 3H-moxestrol binding inhibiting effect (IC50) ratio)” value: 93% for the first, 121% for the second.

Going from `CSc1ccc(-c2c(C)c3cc(O)ccc3n2CCCCCCNC(C)c2ccccc2)cc1` (stereo not drawn) [Example 312, 5-hydroxy-3-methyl-2-(4-methylthiophenyl)-1-[6-(1-phenylethyl)aminohexyl]indole] to `Cc1c(-c2ccc(Sc3ccccc3)cc2)n(CCCCCCNC(C)C)c2ccc(O)cc12` [Example 161], the “RBA (relative binding affinity, 3H-moxestrol binding inhibiting effect (IC50) ratio)” value rises from 42% to 46%.

Compared with `CSc1ccc(-c2c(C)c3cc(O)ccc3n2CCCCCCCCNC(C)C)cc1` [Example 274], `CCC(C)NCCCCCCn1c(-c2ccc(SC)cc2)c(C)c2cc(O)ccc21` (stereo not drawn) [Example 179] is lower in “RBA (relative binding affinity, 3H-moxestrol binding inhibiting effect (IC50) ratio)” value: 65% for the first, 60% for the second.

`CCC(C)(C)NCCCCCCn1c(-c2ccc(SC)cc2)c(C)c2cc(O)ccc21` [Example 182] and `CSc1ccc(-c2c(C)c3cc(O)ccc3n2CCCCCCNC(C)(C)C)cc1` [Example 178] are the same in “RBA (relative binding affinity, 3H-moxestrol binding inhibiting effect (IC50) ratio)” value: 57% for the first, 57% for the second.

Going from `CSc1ccc(-c2c(C)c3cc(O)ccc3n2CCCCCCCCNC(C)(C)C)cc1` [Example 282] to `CSc1ccc(-c2c(C)c3cc(O)ccc3n2CCCCCCCC(=O)NC(C)(C)C)cc1` [Example 255], the “RBA (relative binding affinity, 3H-moxestrol binding inhibiting effect (IC50) ratio)” value falls from 114% to 41%.

Going from `CSc1ccc(-c2c(C)c3cc(O)ccc3n2CCCCCCCCN(C)C)cc1` [Example 279] to `CSc1ccc(-c2c(C)c3cc(O)ccc3n2CCCCCCCC(=O)N(C)C)cc1` [Example 253], the “RBA (relative binding affinity, 3H-moxestrol binding inhibiting effect (IC50) ratio)” value rises from 82% to 94%.

First: CSc1ccc(-c2c(C)c3cc(O)ccc3n2CCCCCCCC(=O)NC2CCC2)cc1 [Example 254]
Second: CSc1ccc(-c2c(C)c3cc(O)ccc3n2CCCCCCCCNC2CCC2)cc1 [Example 280]
The “RBA (relative binding affinity, 3H-moxestrol binding inhibiting effect (IC50) ratio)” value of the first is lower: 78% for the first, 116% for the second.

Going from `O=C(c1ccc(OCCn2cncn2)cc1)n1c(-c2ccc(Sc3ccccc3)cc2)cc2cc(O)ccc21` [Example 246] to `O=C(c1ccc(OCCN2CCCC2)cc1)n1c(-c2ccc(Sc3ccccc3)cc2)cc2cc(O)ccc21` [Example 234, 5-hydroxy-2-(4-phenylthiophenyl)-1-[4-{2-(1-pyrrolidinyl)ethoxy}benzoyl]indole], the “RBA (relative binding affinity, 3H-moxestrol binding inhibiting effect (IC50) ratio)” value falls from 57% to 50%.

Compared with `O=C(c1ccc(OCCN2CCCCC2)cc1)n1c(-c2ccc(Sc3ccccc3)cc2)cc2cc(O)ccc21` [Example 236], `CSc1ccc(-c2c(C)c3cc(O)ccc3n2CCCCCCCC(=O)N2CCCCC2)cc1` [Example 258] is lower in “RBA (relative binding affinity, 3H-moxestrol binding inhibiting effect (IC50) ratio)” value: 53% for the first, 41% for the second.

Compared with `CSc1ccc(-c2c(C)c3cc(O)ccc3n2CCCCCCNC2CCC2)cc1` [Example 175, 1-(6-cyclobutylaminohexyl)-5-hydroxy-3-methyl-2-(4-methylthiophenyl)indole], `CSc1ccc(-c2c(C)c3cc(O)ccc3n2CCCCCCNC2CC2)cc1` [Example 176] is higher in “RBA (relative binding affinity, 3H-moxestrol binding inhibiting effect (IC50) ratio)” value: 60% for the first, 64% for the second.

Compared with `CSc1ccc(-c2c(C)c3cc(O)ccc3n2CCCCCCCCN2CCOCC2)cc1` [Example 272], `CSc1ccc(-c2c(C)c3cc(O)ccc3n2CCCCCCN2CCSC2)cc1` [Example 291] is higher in “RBA (relative binding affinity, 3H-moxestrol binding inhibiting effect (IC50) ratio)” value: 48% for the first, 70% for the second.

Compared with `CSc1ccc(-c2c(C)c3cc(O)ccc3n2CCCCCCNCc2ccccc2)cc1` [Example 181], `CSc1ccc(-c2c(C)c3cc(O)ccc3n2CCCCCCNC2CCCC2)cc1` [Example 172] is lower in “RBA (relative binding affinity, 3H-moxestrol binding inhibiting effect (IC50) ratio)” value: 52% for the first, 44% for the second.

For `CCSc1ccc(-c2cc3cc(O)ccc3n2CCCCCCCCNC(C)C)cc1` [Example 286], the “RBA (relative binding affinity, 3H-moxestrol binding inhibiting effect (IC50) ratio)” value was 51%.
